Measurements reported in US20060281806A1, “Treatment and inhibition of disease conditions using flexible heteroarotinoids” (priority 2005, published 2006).

Columns and labels:
[1] = system: CC-1 human cervical cell line; assay: In vitro cytotoxicity (SRB growth inhibition) assay, CC-1; assay type: cell-based; design: dose or concentration left out as unconfirmed; settings: 72 h
Procedure: (§1) The SHetA2, SHetA3, SHetA4, SHet50 and 9-cis-RA compounds were evaluated in 4 cervical carcinoma cell lines. The SiHa, CC-1 and C33a human cervical cell lines were maintained in Minimal Essential Media (MEM) containing Earle's salts and L-glutamine supplemented with nonessential amino acids, 1% sodium pyruvate, 10% fetal bovine serum (FBS) and antibiotic/antimycotic. The HT-3 cervical carcinoma cell line was cultured in McCoy's 5a medium supplemented with 10% FBS and antibiotic/antimycotic. Cells were inoculated into 96 well microtiter plates at densities of 1000 cells/well and incubated for 24 h prior to addition of drugs. Drugs were dissolved in dimethyl sulfoxide (DMSO) and diluted in complete medium, prior to addition to triplicate culture wells to achieve final concentrations of […]. Following drug addition, the plates were incubated for 72 h. The assay was terminated by the addition of cold TCA and the cells were stained with 0.4% sulforhodamine B (SRB) in 1% acetic acid. Bound stain was subsequently solubilized with 10 mM trizma base, and the absorbance was read on an automated plate reader at a wavelength of 560 nm. Growth inhibition was determined by dividing the average Optical Density (OD) of the triplicated treated cultures by the average OD of the triplicate control cultures treated with DMSO solvent only. This ratio was converted into a percentage by multiplying by 100. The potency (concentration required to induce half of the maximal activity—GI50) were derived from dose-response graphs generated with results from 3 to 5 individual experiments using GraphPad Software.

[2] = system: B16 mouse melanoma; assay: B16 melanoma syngeneic tumor model; assay type: in vivo; settings: oral 60 mg/kg/day
Procedure: (§2) FIG. 12. Various Xenograft tumors stained with CD34 antibodies (brown) to identify endothelium. The B16 mouse melanoma cell line was established as a syngeneic tumor in an immunocompetent mouse model and the human Caki renal cancer and A2780 ovarian xenograft tumors in immunocompromised mice. The treated mice were gavaged with 60 mg/kg/day SHetA2 and the untreated were gavaged with solvent only. The tumors were excised and sections were stained with the anti-CD34 antibody to detect endothelial cells (brown stain).
(§3) Survival was the primary endpoint of those studies. […] Tumor growth was the primary endpoint of the renal cancer study.

[3] = system: OVCAR-3 xenograft tumors; assay: Histochemical and immunohistochemical evaluation of xenograft tumors (glands, MUC-1, TUNEL); assay type: in vivo, mouse; settings: 10 mg/kg/day by gavage; end of treatment; versus control
Source text: On the last day of treatment, the animals were sacrificed and then the tumors were removed, fixed in neutral buffered formalin and embedded in paraffin. Five micron sections of the paraffin-embedded tumors were stained with hematoxylin and eosin (H&E) for histologic evaluation, and with the TUNEL (terminal deoxynucleodidyl transferase-mediated biotin-deoxyuridine triphosphate nick) FragEL kit (Oncogene Research Products, Boston, Mass.) for evaluation of apoptosis according to manufacturers instructions. MUC-1 expression was detected in tumor sections using a mouse monoclonal antibody to human MUC-1 (Pharmingen, San Diego, Calif.) and the Histostain-Plus AEC Kit (Zymed Laboratories, San Francisco, Calif.) according to manufacturers instructions. Briefly, endogenous peroxidase activity in deparaffinized sections was quenched with 3% H2O2 in methanol and then sections were incubated in serum blocking solution, and subsequently in primary antibody, diluted 1:50 in phosphate buffered saline (PBS), overnight at 4° C. in a humid chamber. Sections were then washed with PBS, treated with biotinylated secondary antibody for 15 minutes, followed by enzyme conjugate for 10 minutes. […] Tumor sections were scored for number of glands (quantified in one H&E stained sections and 3 MUC-1-stained sections) and MUC-1 and TUNEL staining (based on staining intensity and percent positive cells). […]

[4] = system: dorsal skin of female Skh hairless mice; assay: Topical irritancy; assay type: in vivo; settings: mouse, in vivo
Procedure: Female Skh hairless mice, 6-8 weeks old, were treated topically on the dorsal skin for 4 days over a 2-log concentration dose range with various compounds. Retinoic acid receptor-Hets were evaluated in A, while retinoic acid receptor-independent Flex-Hets were evaluated in B. Daily flaking and abrasion scores were combined to calculate a single cutaneous toxicity score for each mouse. Each treatment group consisted of 4 mice, and group averages were used to plot cutaneous toxicity against doses of the compounds.
Topical irritancy was evaluated according to published procedures (29). Briefly, female Skh hairless mice, 6-8 weeks old, were treated topically on the dorsal skin for 4 days over a 2-log concentration dose range with various compounds. Daily flaking and abrasion scores were combined to calculate a single cutaneous toxicity score for each mouse. Each treatment group consists of 4 mice, and group averages are used to plot cutaneous toxicity against dose of the retinoid compound.

[5] = system: C33a human cervical cell line; assay: In vitro cytotoxicity (SRB growth inhibition) assay, C33a; assay type: cell-based; design: dose or concentration left out as unconfirmed; settings: 72 h
Procedure: as §1

[6] = system: EAhy.926 endothelial cells; assay: Endothelial tube branching on matrigel; assay type: cell-based; settings: various concentrations (1, 5, 10 μM); scored after twenty hours
Source text: The graph on the left provides quantification of the endothelial branches for each treatment dose.

[7] = system: A2780 ovarian xenograft tumors; assay: A2780 ovarian xenograft tumor model; assay type: in vivo, mouse; settings: oral 60 mg/kg/day
Procedure: as §2, §3

[8] = system: HT-3 cervical carcinoma cell line; assay: In vitro cytotoxicity (SRB growth inhibition) assay, HT-3; assay type: cell-based, human; design: dose or concentration left out as unconfirmed; settings: 72 h
Procedure: as §1

[9] = system: C6 glioma cells injected into the brains of rats; assay: Rat glioma (brain cancer) model, MRI; assay type: in vivo; settings: Monday, Wednesday and Friday
Procedure: FIG. 9. SHetA2 inhibition of Angiogenesis. C6 glioma cells were injected into the brains of 2 rats. One week later, one rat was gavaged with 60 mg/kg/day SHetA2 on each Monday, Wednesday and Friday. Blood vessels were imaged by MRI.
FIG. 10. […] C6 glioma cells were injected into the brains of 2 rats. One week later, one rat was gavaged with 60 mg/kg/day SHetA2 on each Monday, Wednesday and Friday. The blood flow was measured by MRI imaging.
FIG. 11. SHetA2 inhibition of glioma tumor growth. C6 glioma cells were injected into the brains of 2 rats. One week later, one rat was gavaged with 60 mg/kg/day SHetA2 on each Monday, Wednesday and Friday. The tumor size was measured by MRI imaging.
In this in vivo model, glioma cells are injected into the brains of rats and the growth of the tumor and development of blood vessels in the tumor is measured by magnetic resonance imaging (MRI).

[10] = oral 60 mg/kg/day, versus untreated control

## CC1(C)CC(C)(C)c2cc(NC(=S)Nc3ccc([N+](=O)[O-])cc3)ccc2S1 [SHetA2]
[1]
  Efficacy: percent growth inhibition relative to the untreated control: 58%
[2]; melanoma model
  survival: improved survival
[2]; melanoma
  development of blood vessels inside tumors (anti-CD34 staining): inhibited the development of blood vessels
[3]
  MUC-1 expression in xenograft tumors: increase staining for mucin-1 (MUC1) protein
  gland formation (numbers of glands) in xenograft tumors: greatest degree of gland induction
[4]
  topical irritancy (cutaneous toxicity score): did not induce topical irritancy
[5]
  Efficacy: percent growth inhibition relative to the untreated control: 87%
[6]
  endothelial tube branching (in vitro angiogenesis): dose-responsive inhibition of angiogenesis
[7]; ovarian cancer model
  survival: improved survival
[7]; ovarian
  development of blood vessels inside tumors (anti-CD34 staining): inhibited the development of blood vessels
[8]
  Efficacy: percent growth inhibition relative to the untreated control: 92%
[9]; gavage 60 mg/kg/day
  blood flow (MRI): inhibition of blood flow
[9]; [10]
  angiogenesis of glioma tumors (MRI): inhibited
  growth of glioma tumors (MRI): inhibited
